Experimental findings from patent US12053473B2, “Benzylamino substituted quinazolines and derivatives as SOS1 inhibitors” (priority 2016, dated 2024) are described below.

In one assay the target is SOS1 and KRAS G12D (protein-protein interaction) (Homo sapiens, UniProt Q07889). The experiment in a line: KRAS::SOS1 AlphaScreen binding assay. The conditions noted are these: assay buffer with 100 μM EDTA (values marked with an asterisk); read-out: IC50 (SOS1). The procedure:
KRAS::SOS1 AlphaScreen Binding Assay
Low IC50 values are indicative of high potency of the SOS1 inhibitor compound in this assay setting:
10 nM (final assay concentration) KRAS G12D, 10 μM (final assay concentration) GDP and 5 nM (final assay concentration) GST-SOS1 are mixed in assay buffer prior to use and kept at room temperature.
AlphaLSA Glutathione Acceptor Beads and AlphaScreen Streptavidin Donor Beads are mixed in assay buffer at a concentration of 10 μg/mL (final assay concentration) each prior to use and kept at room temperature.
Compounds are diluted to a final start concentration of 100 μM and are tested in duplicate. […] For compound a start concentration of 100 μM, 150 nL of compound solution is transferred per well in 11 concentrations in duplicate with serial 1:5 dilutions.
The assay is run using a fully automated robotic system in a darkened room below 100 Lux. 10 μL of KRAS::SOS1 GDP mix is added into columns 1-24 to the 150 nL of compound solution (final dilution in the assay 1:100, final DMSO concentration 1%).
After a 30 minute incubation time 5 μL of bead mix is added into columns 1-23. Plates are kept at room temperature in a darkened incubator. After a further 60 minute incubation, the signal is measured using a PerkinElmer Envision HTS Multilabel Reader using the AlphaScreen specifications from PerkinElmer. Each plate contains the following controls: • diluted DMSO+KRAS::SOS1 GDP mix+bead mix • diluted DMSO+KRAS::SOS1 GDP mix Result Calculation:
IC50 values are calculated and analyzed using a 4 parametric logistic model.
Background: Alpha assays give light when donor and acceptor beads are brought close together.
On to `Cc1cccc([C@@H](C)Nc2nc(C)nc3ccc(C4CCS(=O)(=O)CC4)cc23)c1` [I-161], for which the IC50 came out at 29 nM.

Staying with this assay, now noted: assay buffer without EDTA (values not marked with an asterisk); read-out: IC50 (SOS1).
On to `Cc1cccc([C@@H](C)Nc2nc(C)nc3cc(C)c(C4CCN(CC(=O)O)CC4)cc23)c1` [I-291], for which the IC50 amounted to 10 nM. For the molecule `Cc1cccc([C@@H](C)Nc2nc(C)nc3c(C)cc(C4CCN(C5CCOC5)CC4)cc23)c1` (stereo partly drawn) [I-290], the IC50 came to 28 nM. With `Cc1cccc([C@@H](C)Nc2nc(C)nc3cc(C)c(C4CCNCC4)cc23)c1` [I-176], the IC50 was 46 nM.

With `CC(=O)N1CC[C@H](Oc2cc3c(N[C@H](C)c4cc(N)cc(C(F)(F)F)c4)nc(C)nc3cc2F)C1` [I-8], the IC50 was 6 nM. Still for that read-out and setting: to `Cc1nc(N[C@H](C)c2cccc(C(F)(F)F)c2)c2cc([C@]3(O)CC[C@H](C(=O)N(C)C)CC3)ccc2n1` [I-78] belongs 27 nM.

Take `CC(=O)N1CCC(O)(c2cc(C)c3nc(C)nc(N[C@H](C)c4cccc(C(F)(F)F)c4)c3c2)CC1` [I-43]: the IC50 worked out at 8 nM. Same read-out and setting: to `COc1cc2nc(C)nc(N[C@H](C)c3cccc(C(F)(F)F)c3)c2cc1O[C@H]1CCN(C(C)=O)C1` [I-5] belongs 13 nM; to `Cc1cccc([C@@H](C)Nc2nc(C)nc3cc(C)c(C4CCN(C(C)C)CC4)cc23)c1` [I-288], 22 nM.

Staying with this assay, now noted: read-out: IC50 (SOS1).
Turning to `CCn1ccc(-c2cc3c(N[C@H](C)c4cc(N)cc(C(F)(F)F)c4)nc(C)nc3cc2C)cc1=O` [I-349], the IC50 worked out at 5 nM. On to `CNC(=O)CC(C)c1cc2c(N[C@H](C)c3cccc(C(F)(F)F)c3)nc(C)nc2cc1OC` (stereo partly drawn) [I-381], for which the IC50 worked out at 17 nM. `Cc1nc(N[C@H](C)c2cccc(C(F)(F)F)c2)c2cc([C@H]3CC[C@@H](C(=O)N(C)C4COC4)CC3)ccc2n1` [I-233]: the IC50 turned out to be 38 nM. The same measure, in the same setting: with `COc1cc2nc(C)nc(N[C@H](C)c3cc(N)cc(C(F)(F)F)c3)c2cc1-c1ccc(C(=O)N(C)CCO)nc1` [I-224] the figure was 4 nM; with `COc1cc2nc(C)nc(N[C@H](C)c3cccc(C(F)(F)F)c3)c2cc1C(C)CC(=O)NC1CC1` (stereo partly drawn) [I-383], 21 nM; with `CCN(C)C(=O)[C@H]1CC[C@H](c2ccc3nc(C)nc(N[C@H](C)c4cc(N)cc(C(F)(F)F)c4)c3c2)CC1` [I-238], 3 nM. For the molecule `Cc1nc(N[C@H](C)c2cc(N)cc(C(F)(F)F)c2)c2cc(C3CCS(=O)(=O)CC3)ccc2n1` [I-322], the IC50 came to 3 nM. Still for that read-out and setting: with `COCCN(C)C(=O)[C@H]1CC[C@@H](c2ccc3nc(C)nc(N[C@H](C)c4cc(N)cc(C(F)(F)F)c4)c3c2)CC1` [I-237] the figure was 9 nM; with `CCn1cc(-c2cc3c(N[C@H](C)c4cc(N)cc(C(F)(F)F)c4)nc(C)nc3cc2C)ccc1=O` [I-347], 6 nM. Consider `COc1cc2nc(C)nc(N[C@H](C)c3cc(N)cc(C(F)(F)F)c3F)c2cc1[C@H]1CC[C@@H](C(=O)N(C)C)CC1` [I-245], for which the IC50 worked out at 35 nM. `Cc1nc(N[C@H](C)c2cc(N)cc(C(F)(F)F)c2)c2cc([C@H]3CC[C@@H](C(=O)N4CCOCC4)CC3)ccc2n1` [I-235]: the IC50 is 8 nM.

Consider `COc1cc2nc(C)nc(N[C@H](C)c3cccc(C(F)(F)CO)c3)c2cc1C1=CCC(C(=O)N(C)C)CC1` (stereo partly drawn) [I-285], for which the IC50 was found to be 2 nM.

Still in this assay, the particulars now being: read-out: IC50 (SOS1); assay buffer without EDTA (values not marked with an asterisk).
Take `COc1cc2nc(C)nc(N[C@H](C)c3cccc(C(F)(F)F)c3)c2cc1C1(O)CCC(C(=O)N(C)C[C@H](C)O)CC1` (stereo partly drawn) [I-73]: the IC50 is 41 nM.

Still in this assay, the particulars now being: values marked with * in the table; read-out: IC50 (SOS1).
With `Cc1nc(N[C@H](C)c2cccc(C(F)(F)F)c2)c2cc(-c3cc4n(n3)CCC(=O)N4)ccc2n1` [I-88], the IC50 was 30 nM.

For `CNC(=O)Cn1cc(-c2ccc3nc(C)nc(N[C@H](C)c4cccc(C(F)(F)F)c4)c3c2)ccc1=O` [I-344], the IC50 worked out at 37 nM. `COCC(=O)N1CCC(n2cc(-c3ccc4nc(C)nc(N[C@H](C)c5cccc(C)c5)c4c3)cn2)CC1` [I-219]: the IC50 was 34 nM.

As to `Cc1cccc([C@@H](C)Nc2nc(C)nc3ccc([C@H]4CC[S@](=N)(=O)CC4)cc23)c1` [I-332], the IC50 was determined as 18 nM. Still for that read-out and setting: with `Cc1nc(N[C@H](C)c2cccc(C(F)(F)F)c2)c2cc(-c3cnn(CC(=O)N(C)C)c3)ccc2n1` [I-85] the figure was 41 nM.

In general, IC50 refers to the concentration that inhibits the measured activity by half.
